According to ChEMBL document CHEMBL1155637, “Oleanane triterpenes from Junellia tridens” (2000):
In brackets after ≈: the same amount, converted by molar mass.

Test system: Mycobacterium tuberculosis
Assay: Antitubercular activity against Mycobacterium tuberculosis H37Rv ATCC 27294 by BACTEC 460 radiorespirometric assay
Format: functional

| SMILES | MIC [µg/mL] |
| --- | --- |
| CC(C)[C@@H]1CC[C@]2(C)[C@H](CC=C3[C@@H]4CC(C)(C)CC[C@]4(C(=O)O)CC[C@]32C)[C@@]1(C)CCC(=O)O | 128 (≈ 271 µM) |
| CC1(C)CC[C@]2(C(=O)O)CC[C@]3(C)C(=CC[C@@H]4[C@@]5(C)CC[C@@H](O)C(C)(C)[C@@H]5CC[C@]43C)[C@@H]2C1 | 16 (≈ 35 µM) |
| CC1(C)CC[C@]2(C(=O)O)CC[C@]3(C)C(=C2C1)C=C[C@@H]1[C@@]2(C)CC[C@@H](O)C(C)(C)[C@@H]2CC[C@]13C | 64 (≈ 141 µM) |
| CC1(C)CC[C@@]23CC[C@]4(C)[C@@](C=C[C@@H]5[C@@]6(C)CC[C@@H](O)C(C)(C)[C@@H]6CC[C@]54C)(OC2=O)[C@@H]3C1 | 64 (≈ 141 µM) |
| C=C(C)[C@@H]1CC[C@]2(C(=O)O)CC[C@]3(C)[C@H](CC[C@@H]4[C@@]5(C)CC[C@@H](O)C(C)(C)[C@@H]5CC[C@]43C)[C@@H]12 [EPIBETULINIC ACID] | 50 (≈ 109 µM) |
| CC1(C)CC[C@]2(C(=O)O)CC[C@]3(C)C(=CC[C@@H]4[C@@]5(C)CC[C@H](O)C(C)(C)[C@@H]5CC[C@]43C)[C@@H]2C1 [OLEANOLIC_ACID] | 50 (≈ 109 µM) |
| CC1(C)CC[C@]2(C(=O)O)CC[C@]3(C)C(=CC[C@@H]4[C@@]5(C)CCC(=O)C(C)(C)[C@@H]5CC[C@]43C)[C@@H]2C1 [OLEANONIC ACID] | 16 (≈ 35.2 µM) |
| CO[C@H]1/C=C/O[C@@]2(C)Oc3c(C)c(O)c4c(O)c(c(/C=N/N5CCN(C)CC5)c(O)c4c3C2=O)NC(=O)/C(C)=C\C=C\[C@H](C)[C@H](O)[C@@H](C)[C@@H](O)[C@@H](C)[C@H](OC(C)=O)[C@@H]1C [RIFAMPIN] | 0.16 (≈ 0.194 µM) |
